Structures can show the parent of a compound that is named as a salt. Where two headings read alike, the source gives them in different places.
Assays:
[1] = target: T1, phenylethanolamine N-methyltransferase (PNMT), non-immobilized (Bos taurus, UniProt P10938); assay: Non-immobilized PNMT activity assay, batch incubation with HPLC-fluorescence analysis; type: biochemical, bovine
T1 sequence (P10938 1-283): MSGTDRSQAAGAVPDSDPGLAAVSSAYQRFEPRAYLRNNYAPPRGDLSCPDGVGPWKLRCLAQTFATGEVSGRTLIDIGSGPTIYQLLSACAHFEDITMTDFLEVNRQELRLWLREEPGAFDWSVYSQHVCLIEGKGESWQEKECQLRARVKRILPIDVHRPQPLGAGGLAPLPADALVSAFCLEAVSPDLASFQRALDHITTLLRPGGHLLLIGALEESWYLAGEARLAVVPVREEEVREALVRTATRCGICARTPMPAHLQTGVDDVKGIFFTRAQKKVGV
Procedure: A mobile phase consisting of potassium phosphate buffer (50 mM) adjusted to pH 2.0 with trifluoroacetic acid was utilized to achieve the desired chromatographic separation of the products from the substrates. The solutes were quantitated using fluorescence detection with excitation at λ=266 nm and emission at λ=380 nm. A flow rate of 0.7 ml/min and ambient temperature were used throughout the study.
(§1) The activity of phenylethanolamine N-methyltransferase was assayed as follows: [final concentration] To 500 μL of enzyme solution [163 μg] was added 50 μL S-adenosyl-L-methionine [20 μM] and the solution was vortexed for 1 min. The reaction was started by addition of the 50 μL substrate [1 mM]. The reaction medium was incubated for 10 min at 37° C. in a shaking bath. The resulting solution was centrifuged at 3000×g and the supernatant were directly injected onto the HPLC under the above mentioned conditions.

[2] = target: T2, PNMT-IMER (immobilized phenylethanolamine N-methyltransferase) (Bos taurus, UniProt P10938); assay: On-line PNMT immobilized enzyme reactor (PNMT-IMER) HPLC system; type: biochemical, bovine; settings: for IC50: n = 2, read-out: IC 50 PNMT-IMER
T2 sequence (P10938 1-283): T1 sequence (P10938 1-283)
Excerpt: PNMT immobilized on the Glut-P stationary phase was packed into a lcm×10 mm guard (Regis Technologies). The guard was put into a holder and the column was placed onto the chromatographic system. The PNMT-IMER was washed with phosphate buffer [0.1M, pH 8.3]. The eluent was collected in order to determine if any of the enzyme was being washed off the column. The Biorad assay was utilized to measure the amount of non-immobilized enzyme. When the column was not in use it was washed with phosphate buffer [0.1M, pH 8.3] and stored at 4° C.
The pump on system 2 is stopped. 100 μl of a substrate/cofactor mixture is loaded into the injector (i) and the value is switched to the inject position at the same time the switching valve (SV) is switched such that the substrate/product are eluted from the PNMT-IMER and concentrated onto the analytical columns of System 2 for the specified contact time. When the specific contact time elapses the SV is switched back to the original position and the pump on system 2 is started. The unreacted substrate and product formed are separated on the coupled analytical columns.
The enzymatic activity on the PNMT-IMER was determined by quantification of the amount of product formed with a given substrate. The temperature of the PNMT-IMER unless otherwise stated was kept at 37° C. with a column heater. Stock solutions of normetanephrine were prepared in water. The substrate concentrations examined ranged from 0.15-10 mM and that of the cofactor, S-adenosyl-L-methionine, ranged from 5-100 μM.
Enzymatic activity was examined carrying out injections of a series of substrate/cofactor mixtures. The mixtures were injected onto the IMER at a flow rate of 0.2 ml/min for a contact time of 20 min. The kinetic parameters were determined by drawing Lineweaver-Burke plots utilizing Microsoft Excel. Results are expressed as mean±standard error of the mean (SEM).
The effect of known inhibitors, S-adenosylhomocysteine and methyldopa on the enzymatic activity of the PNMT-IMER was also examined. The inhibition of the PNMT-IMER was carried out using injections of a series of substrate/cofactor/inhibitor mixtures.

[3] = target: T3, PNMT-Glut-P stationary phase (PNMT-SP) (Bos taurus, UniProt P10938); assay: PNMT immobilized on Glut-P stationary phase (PNMT-SP), batch assay; type: biochemical, bovine
T3 sequence (P10938 1-283): T1 sequence (P10938 1-283)
Procedure: as §1
Immobilization onto the Glut-P Liquid Chromatographic stationary phase was accomplished in the following manner: (1) the stationary phase (10-100 mg) was washed three times with 0.1 M sodium phosphate buffer adjusted to pH 8.30 with 5M NaOH. The washing was carried out by adding 1 ml of buffer to the stationary phase, the suspension was mixed for 1 min, centrifuged at 3000×g for 10 min, and the supernatant decanted. (2) The enzyme solution [98 μg in 0.6 ml sodium phosphate buffer (0.1M, pH 8.30)] was added to the packing material, the mixture was mixed gently for 5 min and then placed in a rotator/stirrer bath for 18 h at ambient temperature. (3) At the end of 18 h, the suspension was centrifuged, the supernatant decanted and the packing material was washed three additional times with buffer. (4) The amount of enzyme immobilized on the packing material was determined by measuring the amount of residual enzyme in the supernatant using the BioRad Protein Assay. The difference in the absorbance reading before immobilization and the combined absorbances of the washings after immobilization determined the amount of enzyme bound on the packing material.

[4] = target: T3, PNMT-Glut-P stationary phase (PNMT-SP); settings: Table 7, *Data obtained from reference 14; cited from earlier work
[5] = non-immobilized PNMT, read-out: Ki PNMT
[6] = immobilized PNMT, read-out: Ki PNMT-SP
[7] = 0.2 ml/min, contact time 20 min, 37° C., n = 2

## Nc1ncnc2c1ncn2[C@@H]1O[C@H](CSCC[C@H](N)C(=O)O)[C@@H](O)[C@H]1O [SAH, S-adenosyl-L-homocysteine]
[1]
  IC50: 40.1 µM
[2]
  concentration as low as which the PNMT-IMER is inhibited: 5 µM
  IC50: 50.5 ± 1.5 µM

## methyl-dopa
[1]; non-immobilized PNMT, n = 2, read-out: IC 50 PNMT
  IC50: 10.4 µM
[2]
  concentration as low as which the PNMT-IMER is inhibited: 1 µM
  IC50: 7.6 ± 0.2 µM

## Cl.NCc1ccccc1 [Benzylamine, benzylamine hydrochloride]
[1]; non-immobilized PNMT
  concentration as low as which the enzyme is inhibited: 100 µM
[1]; [5]
  Ki: 220 ± 110 µM
[3]; FIG. 8
  inhibition of PNMT activity, immobilized PNMT compared to the non-immobilized PNMT: three times higher
[3]; immobilized PNMT
  concentration as low as which the enzyme is inhibited: 100 µM
[3]; [6]
  Ki: 690 ± 100 µM

## C[S+](CC[C@H](N)C(=O)O)C[C@H]1O[C@@H](n2cnc3c(N)ncnc32)[C@H](O)[C@@H]1O (stereo partly drawn) [SAM, S-adenosyl-L-methionine]
[4]
  Km: 10.6 µM
  Vmax: 0.254 µmol/mg/min
[1]; non-immobilized PNMT
  Km: 14.2 µM
  Vmax: 1.249 µmol/mg/min
[3]; PNMT-SP, Table 5
  Km: 10.6 µM
  Vmax: 0.654 µmol/mg/min
[2]; [7]
  Km: 7.31 µM
  Vmax: 0.424 µmol/mg/min

## COc1cc(C(O)CN)ccc1O (racemic) [Normetanephrine, DL-normetanephrine hydrochloride]
[4]
  Km: 152 µM
  Vmax: 0.823 µmol/mg/min
[3]; PNMT-SP, Table 5
  Vmax: 0.823 µmol/mg/min

## CCN1C(=O)C=CC1=O [N-ethylmaleimide]
[1]; [5]
  Ki: 1.04 ± 0.49 µM
[3]; [6]
  Ki: 4.92 ± 0.16 µM

## O=S(=O)(O)c1cc[c]([Hg][Cl])cc1 [p-chloromercuriphenylsulfonic acid, p-chloromercuriphenylsulfonic acid monosodium salt]
[1]
  Ki: 120 ± 140 µM
[3]
  Ki: 520 ± 190 µM
